Literature values, collected in article PMC4008261, “Rewiring of regenerated axons by combining treadmill training with semaphorin3A inhibition” (Molecular Brain, 2014).

Legend:
semaphorin3A = test system: semaphorin3A; set-up: method as in PMID 17099709; conditions: in vitro and in vivo; cited from earlier work
SCT adult rats = test system: SCT adult rats; set-up: method as in PMID 17099709; conditions: adult rats after total spinal cord transection (SCT), osmotic mini-pump; cited from earlier work

CC(=O)c1c(C)c(/C(O)=C2\COc3cc(O)c(O)c(C(=O)O)c3C2=O)cc2c(=O)c3c(C(=O)O)c(O)c(O)cc3oc12 [SM-216289, xanthofulvin]
inhibition of semaphorin3A signaling (semaphorin3A): selectively inhibits semaphorin3A signaling both in vitro and in vivo | axonal regeneration and motor function recovery (SCT adult rats): led to axonal regeneration and motor function recovery
